Assay results: publication PMC5977019, “NMR, Novel Pharmacological and In Silico Docking Studies of Oxyacanthine and Tetrandrine: Bisbenzylisoquinoline Alkaloids Isolated from Berberis glaucocarpa Roots” (Journal of Analytical Methods in Chemistry, 2018)

Legend:
urease (jack bean) [1] = target: T1, urease (jack bean) (Canavalia ensiformis, UniProt P07374); assay: indophenol urease assay (ammonia production, […] nm), standard inhibitor; format: biochemical; conditions: read-out: IC50 ± SEM (μg/mL) (converted)
T1 sequence (P07374 whole entry, looked up): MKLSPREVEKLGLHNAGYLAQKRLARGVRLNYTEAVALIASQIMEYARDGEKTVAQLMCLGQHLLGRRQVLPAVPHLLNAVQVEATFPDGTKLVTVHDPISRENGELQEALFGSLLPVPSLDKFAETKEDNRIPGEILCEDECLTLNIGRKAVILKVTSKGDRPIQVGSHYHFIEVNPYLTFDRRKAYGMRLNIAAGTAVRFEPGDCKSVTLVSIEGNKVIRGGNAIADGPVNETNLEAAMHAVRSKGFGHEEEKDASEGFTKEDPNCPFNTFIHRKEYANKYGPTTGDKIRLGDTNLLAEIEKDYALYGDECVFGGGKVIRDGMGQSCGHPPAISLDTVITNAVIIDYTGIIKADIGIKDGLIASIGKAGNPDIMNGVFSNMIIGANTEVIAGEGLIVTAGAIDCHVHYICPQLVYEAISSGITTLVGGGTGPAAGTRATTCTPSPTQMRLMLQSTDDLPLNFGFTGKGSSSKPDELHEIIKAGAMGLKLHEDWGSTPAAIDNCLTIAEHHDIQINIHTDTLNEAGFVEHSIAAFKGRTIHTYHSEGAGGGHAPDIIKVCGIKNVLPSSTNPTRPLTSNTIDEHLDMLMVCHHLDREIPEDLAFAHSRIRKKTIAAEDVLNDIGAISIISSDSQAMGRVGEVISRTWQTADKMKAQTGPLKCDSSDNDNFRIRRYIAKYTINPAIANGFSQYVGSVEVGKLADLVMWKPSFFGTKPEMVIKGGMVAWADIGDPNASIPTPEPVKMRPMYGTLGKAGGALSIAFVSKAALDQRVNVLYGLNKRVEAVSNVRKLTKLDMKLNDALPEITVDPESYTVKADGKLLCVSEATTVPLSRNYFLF

urease (jack bean) [2] = target: T1, urease (jack bean); assay: indophenol urease assay (ammonia production, […] nm); format: biochemical

With `NC(N)=S` [thiourea] the IC50 (urease (jack bean) [1]) was 215 µM.
Compound `COc1ccc2cc1Oc1ccc(cc1)C[C@H]1c3cc(c(OC)cc3CCN1C)Oc1c(OC)c(OC)cc3c1[C@H](C2)N(C)CC3` [compound 2, tetrandrine] has an IC50 (urease (jack bean) [2]; read-out: IC50 ± SEM (μg/mL) (converted)) of 8.85 µM.
Compound `COc1cc2c3cc1Oc1c(OC)c(OC)cc4c1[C@H](Cc1ccc(cc1)Oc1cc(ccc1O)C[C@H]3N(C)CC2)N(C)CC4` [compound 1, oxyacanthine] has an IC50 (urease (jack bean) [2]) of 10.4 µM.
